Test results: patent US20230085307A1, “PYRIDAZINONE COMPOUND AND HERBICIDE” (NISSAN CHEMICAL CORPORATION, priority 2019, published 2023)

Columns and labels:
[1] = tested on: barnyard grass; assay: Test Example 3: herbicidal effect by foliage application, Wagner pot (Table 18, symbol H); format: in vivo, barnyard grass (Echinochloa crus-galli)
Summary of the method: (§1)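 Plants were sown in alluvial soil held under 0.1–0.5 cm standing water and grown 14 days in a greenhouse at 25–30 °C. An emulsifiable formulation, water-diluted to the set dose, was then sprayed onto the foliage, and effects were scored three weeks later using previously defined criteria.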

[2] = tested on: Chinese sprangletop; assay: Test Example 3: herbicidal effect by foliage application, Wagner pot (Table 18, symbol D); format: in vivo, chinese sprangletop (Leptochloa chinensis)
Summary of the method: as §1

[3] = tested on: rice flat sedge; assay: Test Example 3: herbicidal effect by foliage application, Wagner pot (Table 18, symbol E); format: in vivo, rice flat sedge (Cyperus iria)
Summary of the method: as §1

[4] = tested on: southern crabgrass; assay: Test Example 4: herbicidal effect by soil treatment (Table 19, symbol F); format: in vivo, southern crabgrass (Digitaria ciliaris)
Summary of the method: (§2)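 Pre-emergence style soil spray: seeds under ~1.5 cm sterilized diluvial soil received a uniform coat of emulsion diluted to the predetermined herbicide amount. Greenhouse 25–30° C; readout at week three on previously defined criteria.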

[5] = tested on: green foxtail; assay: Test Example 4: herbicidal effect by soil treatment (Table 19, symbol G); format: in vivo, green foxtail (Setaria viridis)
Summary of the method: as §2

[6] = tested on: barnyard grass; assay: Test Example 4: herbicidal effect by soil treatment (Table 19, symbol H); format: in vivo, barnyard grass (Echinochloa crus-galli)
Summary of the method: as §2

[7] = tested on: wild oat; assay: Test Example 4: herbicidal effect by soil treatment (Table 19, symbol I); format: in vivo, wild oat (Avena fatua)
Summary of the method: as §2

[8] = tested on: blackgrass; assay: Test Example 4: herbicidal effect by soil treatment (Table 19, symbol J); format: in vivo, blackgrass (Alopecurus myosuroides)
Summary of the method: as §2

[9] = tested on: Italian ryegrass; assay: Test Example 4: herbicidal effect by soil treatment (Table 19, symbol K); format: in vivo, Italian ryegrass (Lolium multiflorum)
Summary of the method: as §2

[10] = tested on: windgrass; assay: Test Example 4: herbicidal effect by soil treatment (Table 19, symbol L); format: in vivo, windgrass (Apera spica-venti)
Summary of the method: as §2

[11] = tested on: velvetleaf; assay: Test Example 4: herbicidal effect by soil treatment (Table 19, symbol M); format: in vivo, velvetleaf (Abutilon theophrasti)
Summary of the method: as §2

[12] = tested on: redroot pigweed; assay: Test Example 4: herbicidal effect by soil treatment (Table 19, symbol N); format: in vivo, redroot pigweed (Amaranthus retroflexus)
Summary of the method: as §2

[13] = tested on: lambsquarters; assay: Test Example 4: herbicidal effect by soil treatment (Table 19, symbol O); format: in vivo, lambsquarters (Chenopodium album)
Summary of the method: as §2

[14] = tested on: chickweed; assay: Test Example 4: herbicidal effect by soil treatment (Table 19, symbol P); format: in vivo, common chickweed (Stellaria media)
Summary of the method: as §2

[15] = tested on: false cleavers; assay: Test Example 4: herbicidal effect by soil treatment (Table 19, symbol Q); format: in vivo, false cleavers (Galium spurium)
Summary of the method: as §2

[16] = tested on: persian speedwell; assay: Test Example 4: herbicidal effect by soil treatment (Table 19, symbol R); format: in vivo, Persian speedwell (Veronica persica)
Summary of the method: as §2

[17] = tested on: southern crabgrass; assay: Test Example 5: herbicidal effect by foliage application, plastic box (Table 20, symbol F); format: in vivo, southern crabgrass (Digitaria ciliaris); conditions: foliage application, three weeks after application
Summary of the method: (§3)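 Plants were sown into sterilized diluvial soil under about 1.5 cm cover and kept in a greenhouse at 25° C. to 30° C. Fourteen days on, foliage received an even spray of the diluted emulsion. Herbicidal or crop effect was judged three weeks afterwards.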

[18] = tested on: green foxtail; assay: Test Example 5: herbicidal effect by foliage application, plastic box (Table 20, symbol G); format: in vivo, green foxtail (Setaria viridis); conditions: foliage application, three weeks after application
Summary of the method: as §3

[19] = tested on: barnyard grass; assay: Test Example 5: herbicidal effect by foliage application, plastic box (Table 20, symbol H); format: in vivo, barnyard grass (Echinochloa crus-galli); conditions: foliage application, three weeks after application
Summary of the method: as §3

[20] = tested on: wild oat; assay: Test Example 5: herbicidal effect by foliage application, plastic box (Table 20, symbol I); format: in vivo, wild oat (Avena fatua); conditions: foliage application, three weeks after application
Summary of the method: as §3

[21] = tested on: blackgrass; assay: Test Example 5: herbicidal effect by foliage application, plastic box (Table 20, symbol J); format: in vivo, blackgrass (Alopecurus myosuroides); conditions: foliage application, three weeks after application
Summary of the method: as §3

[22] = tested on: Italian ryegrass; assay: Test Example 5: herbicidal effect by foliage application, plastic box (Table 20, symbol K); format: in vivo, Italian ryegrass (Lolium multiflorum); conditions: foliage application, three weeks after application
Summary of the method: as §3

[23] = tested on: windgrass; assay: Test Example 5: herbicidal effect by foliage application, plastic box (Table 20, symbol L); format: in vivo, windgrass (Apera spica-venti); conditions: foliage application, three weeks after application
Summary of the method: as §3

[24] = tested on: velvetleaf; assay: Test Example 5: herbicidal effect by foliage application, plastic box (Table 20, symbol M); format: in vivo, velvetleaf (Abutilon theophrasti); conditions: foliage application, three weeks after application
Summary of the method: as §3

[25] = tested on: redroot pigweed; assay: Test Example 5: herbicidal effect by foliage application, plastic box (Table 20, symbol N); format: in vivo, redroot pigweed (Amaranthus retroflexus); conditions: foliage application, three weeks after application
Summary of the method: as §3

[26] = tested on: lambsquarters; assay: Test Example 5: herbicidal effect by foliage application, plastic box (Table 20, symbol O); format: in vivo, lambsquarters (Chenopodium album); conditions: foliage application, three weeks after application
Summary of the method: as §3

[27] = tested on: chickweed; assay: Test Example 5: herbicidal effect by foliage application, plastic box (Table 20, symbol P); format: in vivo, common chickweed (Stellaria media); conditions: foliage application, three weeks after application
Summary of the method: as §3

[28] = tested on: false cleavers; assay: Test Example 5: herbicidal effect by foliage application, plastic box (Table 20, symbol Q); format: in vivo, false cleavers (Galium spurium); conditions: foliage application, three weeks after application
Summary of the method: as §3

[29] = tested on: persian speedwell; assay: Test Example 5: herbicidal effect by foliage application, plastic box (Table 20, symbol R); format: in vivo, Persian speedwell (Veronica persica); conditions: foliage application, three weeks after application
Summary of the method: as §3

[30] = amount of applied herbicide 320 g/ha
[31] = amount of applied herbicide 144 g/ha

CCCC(=O)Oc1c(C)nn(C)c(=O)c1-c1c(-c2cc(C)c(OC)c(C)c2)sc2ccccc12 [1-075]
herbicidal effect on H (barnyard grass), rating 0-5 ([1]; 320 g/ha): 3 (Herbicidal rate of 40% or more and less than 70%)
herbicidal effect on D (Chinese sprangletop), rating 0-5 ([2]; 320 g/ha): 0 (Herbicidal rate of 5% or less (almost no effect))
herbicidal effect on E (rice flat sedge), rating 0-5 ([3]; 320 g/ha): 5 (Herbicidal rate of 90% or more (almost completely withered))
herbicidal effect rating, F: southern crabgrass [4, 30]: 0 (Herbicidal rate of 5% or less (almost no effect))
herbicidal effect rating, G: green foxtail [5, 30]: 0 (Herbicidal rate of 5% or less (almost no effect))
herbicidal effect rating, H: barnyard grass [6, 30]: 1 (Herbicidal rate of 5% or more and less than 20%)
herbicidal effect rating, I: wild oat [7, 30]: 0 (Herbicidal rate of 5% or less (almost no effect))
herbicidal effect rating, J: blackgrass [8, 30]: 0 (Herbicidal rate of 5% or less (almost no effect))
herbicidal effect rating, K: Italian ryegrass [9, 30]: 0 (Herbicidal rate of 5% or less (almost no effect))
herbicidal effect rating, L: windgrass [10, 30]: 0 (Herbicidal rate of 5% or less (almost no effect))
herbicidal effect rating, M: velvetleaf [11, 30]: 0 (Herbicidal rate of 5% or less (almost no effect))
herbicidal effect rating, N: redroot pigweed [12, 30]: 0 (Herbicidal rate of 5% or less (almost no effect))
herbicidal effect rating, O: lambsquarters [13, 30]: 0 (Herbicidal rate of 5% or less (almost no effect))
herbicidal effect rating, P: chickweed [14, 30]: 0 (Herbicidal rate of 5% or less (almost no effect))
herbicidal effect rating, Q: false cleavers [15, 30]: 0 (Herbicidal rate of 5% or less (almost no effect))
herbicidal effect rating, R: persian speedwell [16, 30]: 3 (Herbicidal rate of 40% or more and less than 70%)
herbicidal effect grade, F: southern crabgrass ([17]; 320 g/ha): 0 (Herbicidal rate of 5% or less (almost no effect))
herbicidal effect grade, G: green foxtail ([18]; 320 g/ha): 0 (Herbicidal rate of 5% or less (almost no effect))
herbicidal effect grade, H: barnyard grass ([19]; 320 g/ha): 0 (Herbicidal rate of 5% or less (almost no effect))
herbicidal effect grade, I: wild oat ([20]; 320 g/ha): 0 (Herbicidal rate of 5% or less (almost no effect))
herbicidal effect grade, J: blackgrass ([21]; 320 g/ha): 0 (Herbicidal rate of 5% or less (almost no effect))
herbicidal effect grade, K: Italian ryegrass ([22]; 320 g/ha): 3 (Herbicidal rate of 40% or more and less than 70%)
herbicidal effect grade, L: windgrass ([23]; 320 g/ha): 0 (Herbicidal rate of 5% or less (almost no effect))
herbicidal effect grade, M: velvetleaf ([24]; 320 g/ha): 0 (Herbicidal rate of 5% or less (almost no effect))
herbicidal effect grade, N: redroot pigweed ([25]; 320 g/ha): 3 (Herbicidal rate of 40% or more and less than 70%)
herbicidal effect grade, O: lambsquarters ([26]; 320 g/ha): 0 (Herbicidal rate of 5% or less (almost no effect))
herbicidal effect grade, P: chickweed ([27]; 320 g/ha): 0 (Herbicidal rate of 5% or less (almost no effect))
herbicidal effect grade, Q: false cleavers ([28]; 320 g/ha): 0 (Herbicidal rate of 5% or less (almost no effect))
herbicidal effect grade, R: persian speedwell ([29]; 320 g/ha): 5 (Herbicidal rate of 90% or more (almost completely withered))

Cc1nn(C)c(=O)c(-c2c(-c3ccc(C(F)(F)F)nc3)sc3ccccc23)c1O [1-078]
herbicidal effect on H (barnyard grass), rating 0-5 ([1]; 144 g/ha): 1 (Herbicidal rate of 5% or more and less than 20%)
herbicidal effect on D (Chinese sprangletop), rating 0-5 ([2]; 144 g/ha): 0 (Herbicidal rate of 5% or less (almost no effect))
herbicidal effect on E (rice flat sedge), rating 0-5 ([3]; 144 g/ha): 3 (Herbicidal rate of 40% or more and less than 70%)
herbicidal effect rating, F: southern crabgrass [4, 31]: 0 (Herbicidal rate of 5% or less (almost no effect))
herbicidal effect rating, G: green foxtail [5, 31]: 0 (Herbicidal rate of 5% or less (almost no effect))
herbicidal effect rating, H: barnyard grass [6, 31]: 2 (Herbicidal rate of 20% or more and less than 40%)
herbicidal effect rating, I: wild oat [7, 31]: 0 (Herbicidal rate of 5% or less (almost no effect))
herbicidal effect rating, J: blackgrass [8, 31]: 0 (Herbicidal rate of 5% or less (almost no effect))
herbicidal effect rating, K: Italian ryegrass [9, 31]: 0 (Herbicidal rate of 5% or less (almost no effect))
herbicidal effect rating, L: windgrass [10, 31]: 0 (Herbicidal rate of 5% or less (almost no effect))
herbicidal effect rating, M: velvetleaf [11, 31]: 0 (Herbicidal rate of 5% or less (almost no effect))
herbicidal effect rating, N: redroot pigweed [12, 31]: 0 (Herbicidal rate of 5% or less (almost no effect))
herbicidal effect rating, O: lambsquarters [13, 31]: 3 (Herbicidal rate of 40% or more and less than 70%)
herbicidal effect rating, P: chickweed [14, 31]: 0 (Herbicidal rate of 5% or less (almost no effect))
herbicidal effect rating, Q: false cleavers [15, 31]: 0 (Herbicidal rate of 5% or less (almost no effect))
herbicidal effect rating, R: persian speedwell [16, 31]: 2 (Herbicidal rate of 20% or more and less than 40%)
herbicidal effect grade, F: southern crabgrass ([17]; 144 g/ha): 0 (Herbicidal rate of 5% or less (almost no effect))
herbicidal effect grade, G: green foxtail ([18]; 144 g/ha): 0 (Herbicidal rate of 5% or less (almost no effect))
herbicidal effect grade, H: barnyard grass ([19]; 144 g/ha): 0 (Herbicidal rate of 5% or less (almost no effect))
herbicidal effect grade, I: wild oat ([20]; 144 g/ha): 0 (Herbicidal rate of 5% or less (almost no effect))
herbicidal effect grade, J: blackgrass ([21]; 144 g/ha): 0 (Herbicidal rate of 5% or less (almost no effect))
herbicidal effect grade, K: Italian ryegrass ([22]; 144 g/ha): 0 (Herbicidal rate of 5% or less (almost no effect))
herbicidal effect grade, L: windgrass ([23]; 144 g/ha): 0 (Herbicidal rate of 5% or less (almost no effect))
herbicidal effect grade, M: velvetleaf ([24]; 144 g/ha): 5 (Herbicidal rate of 90% or more (almost completely withered))
herbicidal effect grade, N: redroot pigweed ([25]; 144 g/ha): 0 (Herbicidal rate of 5% or less (almost no effect))
herbicidal effect grade, O: lambsquarters ([26]; 144 g/ha): 2 (Herbicidal rate of 20% or more and less than 40%)
herbicidal effect grade, P: chickweed ([27]; 144 g/ha): 5 (Herbicidal rate of 90% or more (almost completely withered))
herbicidal effect grade, Q: false cleavers ([28]; 144 g/ha): 1 (Herbicidal rate of 5% or more and less than 20%)
herbicidal effect grade, R: persian speedwell ([29]; 144 g/ha): 5 (Herbicidal rate of 90% or more (almost completely withered))
